From patent US6784184B2, “5-(arylsulfonyl)-,5-(arylsulfinyl), and 5-(arylsulfanyl)-thiazolidine-2,4-diones useful for inhibition of farnesyl-protein transferase” (Wyeth Holdings Corporation, priority 2001, dated 2004)

Assays:
FPTase (H-Ras substrate) = FPTase (H-Ras substrate) (UniProt P29702+P49355); test: in vitro FTase Inhibition Assay, H-Ras as substrate for farnesylation; assay type: biochemical; settings: H-Ras used as substrate for farnesylation
Description: (§1) The ability of the compounds of this invention to inhibit FPTase was evaluated in the standard pharmacological in vitro test procedures described below.
(§2) Methods—1. […] 2. Solution #1 is added to FPTase reaction in a volume of […]. 3. Standard reaction mix, […], contains 50 mM Tris (7.5), […], 3 mM MgCl2, 20 mM KCl, 5 mM DTT, 0.2% octyl-B-glucoside, 1% DMSO, […], 10 ng FPTase, and various concentrations of FPTase inhibitors. 4. Incubate for 30-90 min at […] 5. Stop reactions with TCA/SDS (6%/2%), hold at 4° C. for 45-60 min. 6. Filter by manifold or 96 well plate, wash filter 3-5× with TCA (6%). 7. Add scintillant to filters, measure ^3H-FPP incorporation into Ras protein.
(§3) (cpm from precipitated Ras with test compounds)−(background cpm)×100=% inhibition.
(§4) (cpm from precipitated Ras without test compounds)−(background cpm)

FPTase (K-Ras substrate) = FPTase (K-Ras substrate) (UniProt P29702+P49355); test: in vitro FTase Inhibition Assay, K-Ras as substrate for farnesylation; assay type: biochemical; settings: K-Ras used as substrate for farnesylation
Description: as §1, §2, §3, §4

Molecule	IC50 (FPTase (H-Ras substrate)) [nM]	IC50 (FPTase (K-Ras substrate)) [nM]
Cc1ccc(S(=O)(=O)C2(CC#Cc3ccc(-c4ccccc4)cc3)SC(=O)NC2=O)cc1 (stereo not drawn) [Example 169, 5-(3-Biphenyl-4-yl-prop-2-ynyl)-5-(toluene-4-sulfonyl)-thiazolidine-2,4-dione]	100	1800
COc1ccc(S(=O)(=O)C2(CCCC#Cc3ccc(Cl)cc3)SC(=O)NC2=O)cc1 (stereo not drawn) [Example 97, 5-[5-(4-Chlorophenyl)pent-4-ynyl]-5-(4-methoxyphenylsulfonyl)-thiazolidine-2,4-dione]	75 to 150	3500 to 5500
COc1ccc(S(=O)(=O)C2(CCCC#Cc3ccc(OC(F)(F)F)cc3)SC(=O)NC2=O)cc1 (stereo not drawn) [Example 154, 5-(4-Methoxybenzenesulfonyl)-5-[5-(4-trifluoromethoxyphenyl)pent-4-ynyl]-thiazolidine-2,4-dione]	70 to 150	1000 to 2500
Cc1ccc([N+](=O)[O-])cc1C#CCCCC1(S(=O)(=O)c2cccc3ccccc23)SC(=O)NC1=O (stereo not drawn) [Example 126, 5-[5-(2-Methyl-5-nitrophenyl)-pent-4-ynyl]-5-(naphthalene-1-sulfonyl)-thiazolidine-2,4-dione]	90	1700
COc1ccc(S(=O)(=O)C2(CCCC#Cc3cc(F)cc([N+](=O)[O-])c3)SC(=O)NC2=O)cc1 (stereo not drawn) [Example 133, 5-[5-(3-Fluoro-5-nitrophenyl)pent-4-ynyl]-5-(4-methoxybenzene-sulfonyl)-thiazolidine-2,4-dione]	40 to 200	54 to 1000
COc1ccc(S(=O)(=O)C2(CCCC#Cc3ccc([N+](=O)[O-])cc3)SC(=O)NC2=O)cc1 (stereo not drawn) [Example 121, 5-(4-Methoxybenzenesulfonyl)-5-[5-(4-nitrophenyl)pent-4-ynyl]-thiazolidine-2,4-dione]	120	1600
COc1ccc(S(=O)(=O)C2(CCCC#Cc3cc(NC(=O)Oc4ccc(Cl)cc4)ccc3C)SC(=O)NC2=O)cc1 (stereo not drawn) [Example 177, (3-{5-[5-(4-Methoxybenzenesulfonyl)-2,4-dioxothiazolidin-5-yl]pent-1-ynyl}-4-methylphenyl)carbamic Acid 4-Chloro-phenyl Ester]	11 to 32	86 to 100
COc1ccc(S(=O)(=O)C2(CCCC#Cc3cc(NC(=O)OCC(C)C)ccc3C)SC(=O)N(C(=O)OCC(C)C)C2=O)cc1 (stereo not drawn) [Example 232, Isobutyl 5-(5-{5-[(isobutoxycarbonyl)-amino]-2-methylphenyl}pent-4-ynyl)-5-[(4-methoxyphenyl)sulfonyl]-2,4-dioxo-1,3-thiazolidine-3-carboxylate]	5 to 10	40 to 640
COc1ccc(S(=O)(=O)C2(CCCC#Cc3ccc(NC(=O)OC(C)(C)C)cc3)SC(=O)NC2=O)cc1 (stereo not drawn) [Example 145, (4-{5-[5-(4-Methoxybenzensulfonyl)-2,4-dioxothiazolidin-5-yl]pent-1-ynyl}phenyl)carbamic Acid tert-Butyl Ester]	1200 to 1700	5600 to 10000
Cc1ccc(S(=O)(=O)C2(CCC/C=C\c3ccc(Cl)cc3)SC(=O)NC2=O)cc1 (stereo not drawn) [Example 217, 5-[(4Z)-5-(4-Chloro-phenyl)pent-4-enyl]-5-(toluene-4-sulfonyl)-thiazolidine-2,4-dione]	100	8500
O=C1NC(=O)C(CCCC#Cc2cccc([N+](=O)[O-])c2)(S(=O)(=O)c2ccc(Oc3ccccc3)cc2)S1 (stereo not drawn) [Example 119, 5-[5-(3-Nitrophenyl)pent-4-ynyl]-5-(4-phenoxybenzenesulfonyl)-thiazolidine-2,4-dione]	130 to 140	1300 to 1700
CCCCOc1ccc(S(=O)(=O)C2(CCCC#Cc3ccc(Cl)cc3)SC(=O)NC2=O)cc1 (stereo not drawn) [Example 112, 5-(4-Butoxybenzenesulfonyl)-5-[5-(4-chlorophenyl)-pent-4-ynyl]-thiazolidine-2,4-dione]	590 to 600	1400 to 1500
Cc1ccc(S(=O)(=O)C2(CCCC#Cc3ccc(S(C)(=O)=O)cc3)SC(=O)NC2=O)cc1 (stereo not drawn) [Example 159, 5-[5-(4-Methanesulfonylphenyl)-pent-4-ynyl]-5-(toluene-4-sulfonyl)-thiazolidine-2,4-dione]	650	> 10000
Cc1ccc(C)c(C#CCCCC2(S(=O)(=O)c3ccc(I)cc3)SC(=O)NC2=O)c1 (stereo not drawn) [Example 134, 5-[5-(2,5-Dimethylphenyl)pent-4-ynyl]-5-(4-iodobenzenesulfonyl)-thiazolidine-2,4-dione]	14 to 850	430 to 680
COc1ccc(S(=O)(=O)C2(CCCC#Cc3ccc(C#N)cc3)SC(=O)NC2=O)cc1 (stereo not drawn) [Example 158, 4-{5-[5-(4-Methoxybenzenesulfonyl)-2,4-dioxo-thiazolidin-5-yl]pent-1-ynyl}benzonitrile]	150	3800
Cc1cc([N+](=O)[O-])ccc1C#CCCCC1(S(=O)(=O)c2ccc(Oc3ccccc3)cc2)SC(=O)NC1=O (stereo not drawn) [Example 129, 5-[5-(2-Methyl-4-nitrophenyl)pent-4-ynyl]-5-(4-phenoxybenzenesulfonyl)-thiazolidine-2,4-dione]	100	600 to 790
O=C1NC(=O)C(CCCC#Cc2cc(Cl)ccc2Cl)(S(=O)(=O)c2ccc(I)cc2)S1 (stereo not drawn) [Example 115, 5-[5-(2,5-Dichloro-phenyl)pent-4-ynyl]-5-(4-iodobenzenesulfonyl)-thiazolidine-2,4-dione]	12 to 320	160 to 230
O=C1NC(=O)C(CCCC#Cc2ccc(Cl)cc2)(S(=O)(=O)c2ccc(Oc3ccccc3)cc2)S1 (stereo not drawn) [Example 106, 5-[5-(4-Chlorophenyl)pent-4-ynyl]-5-(4-phenoxybenzenesulfonyl)-thiazolidine-2,4-dione]	230 to 250	1300 to 1700
CCCCOC(=O)Nc1ccc(C)c(C#CCCCC2(S(=O)(=O)c3ccc(OC)cc3)SC(=O)N(C(=O)OCCCC)C2=O)c1 (stereo not drawn) [Example 231, Butyl 5-(5-{5-[(butoxycarbonyl)amino]-2-methylphenyl}pent-4-ynyl)-5-[(4-methoxy-phenyl)sulfonyl]-2,4-dioxo-1,3-thiazolidine-3-carboxylate]	10 to 21	100 to 1000

Further lines, results first:

IC50 (FPTase (H-Ras substrate)) [nM]	IC50 (FPTase (K-Ras substrate)) [nM]	Molecule
30 to 32	1400	COc1ccc(S(=O)(=O)C2(CCCC#Cc3cccc(Cl)c3)SC(=O)NC2=O)cc1 (stereo not drawn) [Example 102, 5-[5-(3-Chlorophenyl)pent-4-ynyl]-5-(4-methoxybenzenesulfonyl)-thiazolidine-2,4-dione]
4 to 70	230 to 1000	COC(=O)Nc1ccc(C)c(C#CCCCC2(S(=O)(=O)c3ccc(OC)cc3)SC(=O)N(C(=O)OC)C2=O)c1 (stereo not drawn) [Example 228, Methyl 5-(5-{5-[(methoxycarbonyl)amino]-2-methylphenyl}pent-4-ynyl)-5-[(4-methoxyphenyl)sulfonyl]-2,4-dioxo-1,3-thiazolidine-3-carboxylate]
2 to 32	5 to 70	COc1ccc(S(=O)(=O)C2(CCCC#Cc3cc(NC(=O)OC(C)C)ccc3C)SC(=O)NC2=O)cc1 (stereo not drawn) [Example 179, (3-{5-[5-(4-Methoxybenzenesulfonyl)-2,4-dioxothiazolidin-5-yl]pent-1-ynyl}-4-methylphenyl)carbamic Acid Isopropyl Ester]
1 to 32	20 to 220	5-[5-(2-Methyl-4-nitrophenyl)pent-4-ynyl]-5-[4-(pyridin-4-yloxy)-benzenesulfonyl]-thiazolidine-2,4-dione [Example 128]
10 to 32	53 to 520	COc1ccc(S(=O)(=O)C2(CCCC#Cc3cc(NC(=O)OCc4ccccc4)ccc3C)SC(=O)NC2=O)cc1 (stereo not drawn) [Example 175, (3-{5-[5-(4-Methoxybenzenesulfonyl)-2,4-dioxothiazolidin-5-yl]pent-1-ynyl}-4-methylphenyl)carbamic Acid Benzyl Ester]
30 to 50	230 to 1000	COc1ccc(S(=O)(=O)C2(CCCC#Cc3cc([N+](=O)[O-])ccc3C)SC(=O)NC2=O)cc1 (stereo not drawn) [Example 122, 5-(4-Methoxybenzenesulfonyl)-5-[5-(2-methyl-5-nitrophenyl)pent-4-ynyl]-thiazolidine-2,4-dione]
20 to 32	1900 to 2100	COc1ccc(S(=O)(=O)C2(CCCC#Cc3cc(C)ccc3C)SC(=O)NC2=O)cc1 (stereo not drawn) [Example 135, 5-[5-(2,5-Dimethylphenyl)pent-4-ynyl]-5-(4-methoxybenzenesulfonyl)-thiazolidine-2,4-dione]
30	400	Cc1ccc([N+](=O)[O-])cc1C#CCCCC1(S(=O)(=O)c2ccc(I)cc2)SC(=O)NC1=O (stereo not drawn) [Example 125, 5-(4-Iodobenzenesulfonyl)-5-[5-(2-methyl-5-nitrophenyl)pent-4-ynyl]-thiazolidine-2,4-dione]
18 to 32	530 to 1000	O=C1NC(=O)C(CCCC#Cc2ccc([N+](=O)[O-])cc2)(S(=O)(=O)c2ccc(I)cc2)S1 (stereo not drawn) [Example 120, 5-(4-Iodobenzenesulfonyl)-5-[5-(4-nitrophenyl)pent-4-ynyl]-thiazolidine-2,4-dione]
23 to 32	300 to 420	COc1ccc(S(=O)(=O)C2(CCCC#Cc3cc(Cl)ccc3C)SC(=O)NC2=O)cc1 (stereo not drawn) [Example 138, 5-[5-(5-Chloro-2-methylphenyl)pent-4-ynyl]-5-(4-methoxybenzene-sulfonyl)thiazolidine-2,4-dione]
80 to 82	1000 to 2800	COc1ccc(S(=O)(=O)C2(CCCC#Cc3cc([N+](=O)[O-])ccc3OC)SC(=O)NC2=O)cc1 (stereo not drawn) [Example 123, 5-(4-Methoxybenzenesulfonyl)-5-[5-(2-methoxy-5-nitrophenyl)pent-4-ynyl]-thiazolidine-2,4-dione]
